Experimental data published in patent US20220119354A1, “DIAMINO-SUBSTITUTED PYRIDINES AND PYRIMIDINES AS HERBICIDES” (FMC Corporation, priority 2019, published 2022).

How the values were obtained:
Format in all cases: in vivo
[1] = system: barnyardgrass (Echinochloa crus-galli); assay: Test B flooded paddy test, barnyardgrass; conditions: Flood, 250 g ai/ha, applied to paddy water, 2-leaf stage, visual evaluation after 13 to 15 d
How it was run: (§1)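 Each response is a visual 0–100 rating made against untreated controls, where 0 is no effect and 100 is complete control; a dash marks no result. Compound was dosed into 3 cm paddy water over 2-leaf plants, assessed after 13 to 15 d.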

[2] = system: pigweed (Amaranthus retroflexus); assay: Test A preemergence, pigweed; conditions: 0 to 100 scale; for Pigweed plant response rating: 0 is no effect, 100 is complete control
How it was run: (§2)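 0–100 visual control rating, ~10 d post-treatment, greenhouse. Pre = directed soil spray on seeded loam/sand; post = spray at 1–2 leaf stage. Surfactant-containing solvent formulation.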

[3] = system: foxtail, giant (Setaria faberii); assay: Test A preemergence, giant foxtail; conditions: 0 to 100 scale; for Foxtail, Giant plant response rating: 0 is no effect, 100 is complete control
How it was run: as §2

[4] = system: pigweed (Amaranthus retroflexus); assay: Test A postemergence, pigweed; conditions: 0 to 100 scale
How it was run: as §2

[5] = system: corn (Zea mays); assay: Test A postemergence, corn; conditions: 0 to 100 scale
How it was run: as §2

[6] = system: ryegrass, Italian (Lolium multiflorum); assay: Test A postemergence, Italian ryegrass; conditions: 0 to 100 scale
How it was run: as §2

[7] = system: wheat (Triticum aestivum); assay: Test A postemergence, wheat; conditions: 0 to 100 scale
How it was run: as §2

[8] = system: kochia (Kochia scoparia); assay: Test A postemergence, kochia; conditions: 0 to 100 scale
How it was run: as §2

[9] = system: galium (catchweed bedstraw, Galium aparine); assay: Test A postemergence, galium; conditions: 0 to 100 scale
How it was run: as §2

[10] = system: ragweed (common ragweed, Ambrosia elatior); assay: Test A postemergence, ragweed; conditions: 0 to 100 scale
How it was run: as §2

[11] = system: foxtail, giant (Setaria faberii); assay: Test A postemergence, giant foxtail; conditions: 0 to 100 scale
How it was run: as §2

[12] = system: sedge, umbrella (small-flower umbrella sedge, Cyperus difformis); assay: Test B flooded paddy test, umbrella sedge; conditions: Flood, 250 g ai/ha, applied to paddy water, 2-leaf stage, visual evaluation after 13 to 15 d
How it was run: as §1

[13] = system: ducksalad (Heteranthera limosa); assay: Test B flooded paddy test, ducksalad; conditions: Flood, 250 g ai/ha, applied to paddy water, 2-leaf stage, visual evaluation after 13 to 15 d
How it was run: as §1

[14] = system: kochia (Kochia scoparia); assay: Test A preemergence, kochia; conditions: 0 to 100 scale; for Kochia plant response rating: 0 is no effect, 100 is complete control
How it was run: as §2

[15] = system: barnyardgrass (Echinochloa crus-galli); assay: Test A postemergence, barnyardgrass; conditions: 0 to 100 scale
How it was run: as §2

[16] = system: ragweed (common ragweed, Ambrosia elatior); assay: Test A preemergence, ragweed; conditions: 0 to 100 scale; for Ragweed plant response rating: 0 is no effect, 100 is complete control
How it was run: as §2

[17] = system: barnyardgrass (Echinochloa crus-galli); assay: Test A preemergence, barnyardgrass; conditions: 0 to 100 scale; for Barnyardgrass plant response rating: 0 is no effect, 100 is complete control
How it was run: as §2

[18] = system: rice (Oryza sativa); assay: Test B flooded paddy test, rice; conditions: Flood, 250 g ai/ha, applied to paddy water, 2-leaf stage, visual evaluation after 13 to 15 d
How it was run: as §1

[19] = system: blackgrass (Alopecurus myosuroides); assay: Test A postemergence, blackgrass; conditions: 0 to 100 scale
How it was run: as §2

[20] = system: ryegrass, Italian (Lolium multiflorum); assay: Test A preemergence, Italian ryegrass; conditions: 0 to 100 scale; for Ryegrass, Italian plant response rating: 0 is no effect, 100 is complete control
How it was run: as §2

[21] = 125 g ai/ha, 0 no effect, 100 complete control
[22] = 500 g ai/ha, 0 no effect, 100 complete control

SMILES: C[C@H](Nc1ncc(C(F)(F)F)c(N)n1)c1cc2ccccc2n1C [Compound 76]
- Plant response rating, Barnyardgrass (0 to 100 scale, 0 is no effect, 100 is complete control) [1]: 0
- Pigweed plant response rating ([2]; 125 g ai/ha): 0
- Pigweed plant response rating ([2]; 500 g ai/ha): 0
- Foxtail, Giant plant response rating ([3]; 125 g ai/ha): 0
- Foxtail, Giant plant response rating ([3]; 500 g ai/ha): 0
- Plant response rating, Pigweed [4, 21]: 0
- Plant response rating, Pigweed [4, 22]: 0
- Plant response rating, Corn [5, 21]: 0
- Plant response rating, Corn [5, 22]: 0
- Plant response rating, Ryegrass, Italian [6, 21]: 0
- Plant response rating, Ryegrass, Italian [6, 22]: 0
- Plant response rating, Wheat [7, 21]: 0
- Plant response rating, Wheat [7, 22]: 0
- Plant response rating, Kochia [8, 21]: 0
- Plant response rating, Kochia [8, 22]: 0
- Plant response rating, Galium [9, 21]: 30
- Plant response rating, Galium [9, 22]: 30
- Plant response rating, Ragweed [10, 21]: 0
- Plant response rating, Ragweed [10, 22]: 30
- Plant response rating, Foxtail, Giant [11, 21]: 0
- Plant response rating, Foxtail, Giant [11, 22]: 0
- Plant response rating, Sedge, Umbrella (0 to 100 scale, 0 is no effect, 100 is complete control) [12]: 0
- Plant response rating, Ducksalad (0 to 100 scale, 0 is no effect, 100 is complete control) [13]: 0
- Kochia plant response rating ([14]; 125 g ai/ha): 0
- Kochia plant response rating ([14]; 500 g ai/ha): 0
- Plant response rating, Barnyardgrass [15, 21]: 0
- Plant response rating, Barnyardgrass [15, 22]: 0
- Ragweed plant response rating ([16]; 125 g ai/ha): 0
- Ragweed plant response rating ([16]; 500 g ai/ha): 0
- Barnyardgrass plant response rating ([17]; 125 g ai/ha): 0
- Barnyardgrass plant response rating ([17]; 500 g ai/ha): 0
- Plant response rating, Rice (0 to 100 scale, 0 is no effect, 100 is complete control) [18]: 0
- Plant response rating, Blackgrass [19, 21]: 0
- Plant response rating, Blackgrass [19, 22]: 0
- Ryegrass, Italian plant response rating ([20]; 125 g ai/ha): 0
- Ryegrass, Italian plant response rating ([20]; 500 g ai/ha): 30

SMILES: CC(Nc1nc(N)c(C(F)(F)F)c(C(F)(F)F)n1)c1cc2ccccc2o1 (racemic) [Compound 58]
- Plant response rating, Barnyardgrass (0 to 100 scale, 0 is no effect, 100 is complete control) [1]: 0
- Pigweed plant response rating ([2]; 125 g ai/ha): 0
- Pigweed plant response rating ([2]; 500 g ai/ha): 0
- Foxtail, Giant plant response rating ([3]; 125 g ai/ha): 0
- Foxtail, Giant plant response rating ([3]; 500 g ai/ha): 0
- Plant response rating, Pigweed [4, 21]: 20
- Plant response rating, Pigweed [4, 22]: 60
- Plant response rating, Corn [5, 21]: 0
- Plant response rating, Corn [5, 22]: 0
- Plant response rating, Ryegrass, Italian [6, 21]: 0
- Plant response rating, Ryegrass, Italian [6, 22]: 0
- Plant response rating, Wheat [7, 21]: 0
- Plant response rating, Wheat [7, 22]: 0
- Plant response rating, Kochia [8, 21]: 30
- Plant response rating, Kochia [8, 22]: 80
- Plant response rating, Galium [9, 21]: 0
- Plant response rating, Galium [9, 22]: 20
- Plant response rating, Ragweed [10, 21]: 0
- Plant response rating, Ragweed [10, 22]: 20
- Plant response rating, Foxtail, Giant [11, 21]: 0
- Plant response rating, Foxtail, Giant [11, 22]: 10
- Plant response rating, Sedge, Umbrella (0 to 100 scale, 0 is no effect, 100 is complete control) [12]: 0
- Plant response rating, Ducksalad (0 to 100 scale, 0 is no effect, 100 is complete control) [13]: 0
- Kochia plant response rating ([14]; 125 g ai/ha): 0
- Kochia plant response rating ([14]; 500 g ai/ha): 0
- Plant response rating, Barnyardgrass [15, 21]: 0
- Plant response rating, Barnyardgrass [15, 22]: 50
- Ragweed plant response rating ([16]; 125 g ai/ha): 0
- Ragweed plant response rating ([16]; 500 g ai/ha): 0
- Barnyardgrass plant response rating ([17]; 125 g ai/ha): 0
- Barnyardgrass plant response rating ([17]; 500 g ai/ha): 0
- Plant response rating, Rice (0 to 100 scale, 0 is no effect, 100 is complete control) [18]: 0
- Plant response rating, Blackgrass [19, 21]: 0
- Plant response rating, Blackgrass [19, 22]: 0
- Ryegrass, Italian plant response rating ([20]; 125 g ai/ha): 0
- Ryegrass, Italian plant response rating ([20]; 500 g ai/ha): 0

SMILES: CC(COc1cccc(C(F)(F)F)c1)Nc1ncc(C(F)(F)F)c(N)n1 (stereo not drawn) [Compound 34]
- Plant response rating, Barnyardgrass (0 to 100 scale, 0 is no effect, 100 is complete control) [1]: 0
- Pigweed plant response rating ([2]; 125 g ai/ha): 10
- Plant response rating, Pigweed ([2]; 500 g ai/ha): 90
- Foxtail, Giant plant response rating ([3]; 125 g ai/ha): 50
- Plant response rating, Foxtail, Giant ([3]; 500 g ai/ha): 90
- Plant response rating, Pigweed ([4]; 125 g ai/ha): 0
- Plant response rating, Pigweed ([4]; 500 g ai/ha): 60
- Plant response rating, Corn ([5]; 125 g ai/ha): 0
- Plant response rating, Corn ([5]; 500 g ai/ha): 10
- Plant response rating, Ryegrass, Italian ([6]; 125 g ai/ha): 0
- Plant response rating, Ryegrass, Italian ([6]; 500 g ai/ha): 60
- Plant response rating, Wheat ([7]; 125 g ai/ha): 0
- Plant response rating, Wheat ([7]; 500 g ai/ha): 0
- Plant response rating, Kochia ([8]; 125 g ai/ha): 30
- Plant response rating, Kochia ([8]; 500 g ai/ha): 70
- Plant response rating, Galium ([9]; 125 g ai/ha): 30
- Plant response rating, Galium ([9]; 500 g ai/ha): 70
- Plant response rating, Ragweed ([10]; 125 g ai/ha): 0
- Plant response rating, Ragweed ([10]; 500 g ai/ha): 0
- Plant response rating, Foxtail, Giant ([11]; 125 g ai/ha): 0
- Plant response rating, Foxtail, Giant ([11]; 500 g ai/ha): 30
- Plant response rating, Sedge, Umbrella (0 to 100 scale, 0 is no effect, 100 is complete control) [12]: 0
- Plant response rating, Ducksalad (0 to 100 scale, 0 is no effect, 100 is complete control) [13]: 0
- Kochia plant response rating ([14]; 125 g ai/ha): 0
- Plant response rating, Kochia ([14]; 500 g ai/ha): 80
- Plant response rating, Barnyardgrass ([15]; 125 g ai/ha): 0
- Plant response rating, Barnyardgrass ([15]; 500 g ai/ha): 20
- Ragweed plant response rating ([16]; 125 g ai/ha): 20
- Plant response rating, Ragweed ([16]; 500 g ai/ha): 80
- Barnyardgrass plant response rating ([17]; 125 g ai/ha): 80
- Plant response rating, Barnyardgrass ([17]; 500 g ai/ha): 100
- Plant response rating, Rice (0 to 100 scale, 0 is no effect, 100 is complete control) [18]: 0
- Plant response rating, Blackgrass ([19]; 125 g ai/ha): 0
- Plant response rating, Blackgrass ([19]; 500 g ai/ha): 30
- Ryegrass, Italian plant response rating ([20]; 125 g ai/ha): 0
- Plant response rating, Ryegrass, Italian ([20]; 500 g ai/ha): 30

SMILES: CC(Nc1ncc(C(F)(F)F)c(N)n1)c1cc2ccc(F)c(F)c2s1 (stereo not drawn) [Compound 86]
- Plant response rating, Barnyardgrass (0 to 100 scale, 0 is no effect, 100 is complete control) [1]: 60
- Pigweed plant response rating ([2]; 125 g ai/ha): 100
- Pigweed plant response rating ([2]; 500 g ai/ha): 100
- Foxtail, Giant plant response rating ([3]; 125 g ai/ha): 70
- Foxtail, Giant plant response rating ([3]; 500 g ai/ha): 100
- Plant response rating, Pigweed [4, 21]: 90
- Plant response rating, Pigweed [4, 22]: 100
- Plant response rating, Corn [5, 21]: 0
- Plant response rating, Corn [5, 22]: 0
- Plant response rating, Ryegrass, Italian [6, 21]: 0
- Plant response rating, Ryegrass, Italian [6, 22]: 50
- Plant response rating, Wheat [7, 21]: 0
- Plant response rating, Wheat [7, 22]: 0
- Plant response rating, Kochia [8, 21]: 70
- Plant response rating, Kochia [8, 22]: 90
- Plant response rating, Galium [9, 21]: 70
- Plant response rating, Galium [9, 22]: 70
- Plant response rating, Ragweed [10, 21]: 20
- Plant response rating, Ragweed [10, 22]: 80
- Plant response rating, Foxtail, Giant [11, 21]: 60
- Plant response rating, Foxtail, Giant [11, 22]: 60
- Plant response rating, Sedge, Umbrella (0 to 100 scale, 0 is no effect, 100 is complete control) [12]: 98
- Plant response rating, Ducksalad (0 to 100 scale, 0 is no effect, 100 is complete control) [13]: 75
- Kochia plant response rating ([14]; 125 g ai/ha): 80
- Kochia plant response rating ([14]; 500 g ai/ha): 100
- Plant response rating, Barnyardgrass [15, 21]: 40
- Plant response rating, Barnyardgrass [15, 22]: 50
- Ragweed plant response rating ([16]; 125 g ai/ha): 100
- Ragweed plant response rating ([16]; 500 g ai/ha): 100
- Barnyardgrass plant response rating ([17]; 125 g ai/ha): 70
- Barnyardgrass plant response rating ([17]; 500 g ai/ha): 90
- Plant response rating, Rice (0 to 100 scale, 0 is no effect, 100 is complete control) [18]: 0
- Plant response rating, Blackgrass [19, 21]: 0
- Plant response rating, Blackgrass [19, 22]: 10
- Ryegrass, Italian plant response rating ([20]; 125 g ai/ha): 20
- Ryegrass, Italian plant response rating ([20]; 500 g ai/ha): 70
